Values of other authors, collected in paper PMC2796837 (Journal of biological inorganic chemistry : JBIC : a …, 2008).
Like-named read-outs stand apart in the source and are kept apart here. Values belong to the molecule of their own block, whether it stands above or below them.

Tests used:
[1] = I = 1.0 M KCl, 25°C
[2] = I = 1.0 M KCl, 25°C; remark: listed apart in the source
[3] = I = 1.0 M KCl, 25°C; remark: listed apart in the source
[4] = I = 1.0 M KCl, 25°C; remark: listed apart in the source
[5] = I = 1.0 M KCl, 25°C; remark: listed apart in the source
[6] = I = 1.0 M KCl, 25°C; remark: listed apart in the source
[7] = I = 1.0 M KCl, 25°C; remark: listed apart in the source
[8] = Ce^3+ complex
[9] = I = 1.0 M KCl, 25°C; remark: listed apart in the source
[10] = I = 1.0 M KCl, 25°C; remark: listed apart in the source
[11] = I = 1.0 M KCl, 25°C; remark: listed apart in the source
[12] = I = 1.0 M KCl, 25°C; remark: listed apart in the source
[13] = I = 1.0 M and 25 °C

Structure (SMILES): O=C(O)CN1CCN(CC(=O)O)CCN(CC(=O)O)CCN(CC(=O)O)CC1 [DOTA]
log KML, Eu^3+ [1]: 23.5 | log KML, Dy^3+ [2]: 24.8 | log KML, Lu^3+ [3]: 25.4 | log KML, Nd^3+ [4]: 23.0 | log KML, Yb^3+ [5]: 25.0 | log KMgL [6]: 11.15 | log KZnL [7]: 18.17 | k1 (proton assisted dissociation rate constant) [8]: 0.0008 M⁻¹ s⁻¹ | log K1^H [9]: 12.60 | log K2^H [9]: 9.70 | log K3^H [9]: 4.50 | log K4^H [9]: 4.14 | log K5^H [9]: 2.32 | log KCuL [10]: 22.72 | log KCaL [11]: 16.37 | log KML, Ce^3+ [12]: 23.4

Structure (SMILES): O=C([O-])CN1CCN(CC(=O)[O-])CCN(C(CO)C(O)CO)CCN(CC(=O)[O-])CC1.[Gd+3] (centres unmarked) [GdDO3A-butrol]
LD50: 23 mmolkg^−1

Structure (SMILES): CC(O)CN1CCN(CC(=O)[O-])CCN(CC(=O)[O-])CCN(CC(=O)[O-])CC1.[Gd+3] (centres unmarked) [GdHP-DO3A]
LD50: 12 mmolkg^−1

The next lines start with the values.

log K1^H [13]: 4.83
Structure (SMILES): CN1CCNCC1 [N-methylpiperazine]

log K1^H [13]: 6.04
Structure (SMILES): C1CNCCN1 [piperazine]
